Measurements from PubChem BioAssay (NCI).
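All cell lines were grown in 96-well plates and treated with compound for 48 hours. GI50 = concentration required for 50% inhibition of growth. TGI: concentration producing complete growth inhibition.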

Legend:
Test in all cases: DTP human tumour cell line panel, 48 h
UACC-257 melanoma = system: UACC-257 melanoma
RPMI-8226 leukemia = system: RPMI-8226 leukemia
SK-MEL-28 melanoma = system: SK-MEL-28 melanoma
SNB-19 CNS = system: SNB-19 CNS
MOLT-4 leukemia = system: MOLT-4 leukemia
OVCAR-4 ovarian = system: OVCAR-4 ovarian
SK-MEL-5 melanoma = system: SK-MEL-5 melanoma
NCI-H460 lung = system: NCI-H460 lung
IGROV1 ovarian = system: IGROV1 ovarian
HT29 colon = system: HT29 colon

Compound | GI50 (UACC-257 melanoma) | TGI (UACC-257 melanoma) | GI50 (RPMI-8226 leukemia) | TGI (RPMI-8226 leukemia) | GI50 (SK-MEL-28 melanoma) | TGI (SK-MEL-28 melanoma) | GI50 (SNB-19 CNS) | TGI (SNB-19 CNS) | GI50 (MOLT-4 leukemia) | TGI (MOLT-4 leukemia) | GI50 (OVCAR-4 ovarian) | TGI (OVCAR-4 ovarian) | GI50 (SK-MEL-5 melanoma) | TGI (SK-MEL-5 melanoma) | GI50 (NCI-H460 lung) | TGI (NCI-H460 lung) | GI50 (IGROV1 ovarian) | TGI (IGROV1 ovarian) | GI50 (HT29 colon) | TGI (HT29 colon)
Oc1c(I)cc(-c2nc3ccccc3s2)cc1CN(Cc1ccccn1)Cc1ccccn1 | 870 nM | > 100 µM | 385 nM | 3.03 µM | 411 nM | 43 µM | 0.387 µM | > 100 µM | 327 nM | > 100 µM | 0.231 µM | 5.58 µM | 179 nM | 0.438 µM | 0.327 µM | 5.94 µM | 517 nM | 9.06 µM | 668 nM | 27.6 µM
COc1ccc(CC(NC(=O)[C@H](C)NC(=O)CN2CCOCC2)C(=O)N[C@@H](Cc2ccccc2)C(=O)[C@@]2(C)CO2)cc1 (some centres not stated) | 296 nM |  | 56.5 nM | > 100 µM | 215 nM | 0.586 µM | 0.651 µM | > 100 µM | 57.2 nM |  | 0.228 µM | 0.856 µM | 177 nM | 0.379 µM | 0.422 µM | 1.96 µM | 409 nM | 7.3 µM | 339 nM | > 33.9 µM
COc1cc2cc(Oc3ccc(NC(=O)Nc4ccc(Cl)c(C(F)(F)F)c4)cc3)c(C)nc2cc1OC | 710 nM | 2.36 µM | 635 nM | 1.65 µM | 1410 nM | 5.45 µM | 1.41 µM | 5.31 µM | 1140 nM | 5.49 µM | 1.37 µM | 6.1 µM | 793 nM | 2.17 µM | 1.07 µM | 3.57 µM | 2340 nM | 9.83 µM | 1200 nM | 3.98 µM
COC(=O)/C(=C/c1ccc(OC)cc1)NC(=O)c1ccccc1 |  | > 100 µM |  | > 100 µM |  | > 100 µM |  | > 100 µM |  | > 100 µM |  | > 100 µM |  | > 100 µM |  | > 100 µM |  | > 100 µM |  | > 100 µM
N[C@@H]1CCCC[C@@H]1N.O=C([O-])CN(CP(=O)([O-])[O-])CP(=O)([O-])[O-].[Pt+2] | > 100000 nM | > 100 µM | > 100000 nM | > 100 µM | > 100000 nM | > 100 µM | > 100 µM | > 100 µM | 82500 nM | > 100 µM | > 100 µM | > 100 µM | > 100000 nM | > 100 µM | > 100 µM | > 100 µM | > 100000 nM | > 100 µM | > 100000 nM | > 100 µM
C[C@]12C3CC[C@@]4(CO)C[C@]3(CCC1[C@](C)(C(=O)O)CC[C@@H]2O)CC4=O (some centres not stated) | > 100000 nM | > 100 µM | > 100000 nM | > 100 µM | > 100000 nM | > 100 µM | > 100 µM | > 100 µM | > 100000 nM | > 100 µM | > 100 µM | > 100 µM | > 100000 nM | > 100 µM | > 100 µM | > 100 µM | > 100000 nM | > 100 µM | > 100000 nM | > 100 µM
COc1cc(NCc2ccccc2O)c2ncccc2c1 | 19500 nM | 70.7 µM | 11800 nM | 79.5 µM | 21300 nM | 80.2 µM | 31.8 µM | > 100 µM | 18900 nM | > 100 µM | 13.7 µM | > 100 µM | 10100 nM | 23.4 µM | 15.8 µM | > 100 µM | 13700 nM | 56.2 µM | 19400 nM | 94.1 µM
C=C1CC2(CCCC3(CC(=C)C(=O)O3)C2(C)C)OC1=O (configuration not stated) |  | 5.78 µM |  | 3.57 µM |  | 4.61 µM |  | 32.9 µM |  | 1.03 µM |  | 20.2 µM |  | 31.8 µM |  | 46.3 µM |  | 23.5 µM |  | 15 µM
CCCCCCC#CC#Cc1cccc(=O)o1 | 2210 nM | 7.87 µM | 1720 nM | 27.3 µM | 3220 nM | 10.7 µM | 25.6 µM | 45.9 µM | 2310 nM | > 21 µM | 9.12 µM | 23.1 µM | 304 nM | 0.994 µM | 8.14 µM | 47.9 µM | 2350 nM |  | 3690 nM | 34.6 µM
C1=C(c2ccccc2)SC=C(c2ccccc2)S1 |  | > 100 µM |  | > 100 µM |  | > 100 µM |  | > 100 µM |  | > 100 µM |  | > 100 µM |  | 77.9 µM |  | > 100 µM |  | > 100 µM |  | 75.1 µM
